Measured values from patent US7579342B2, “Pteridine compounds for the treatment of psoriasis” (AstraZeneca, priority 2000, dated 2009).

melting point [°C] | Compound
209 to 211 | C[C@H](CO)Nc1nc(SCc2cccc(Cl)c2F)nc2[nH]c(=O)cnc12 [Example 6, 2-[[(3-Chloro-2-fluorophenyl)methyl]thio]-4-[[(1R)-2-hydroxy-1-methylethyl]amino]-7(8H)-pteridinone]
203 to 205 | C[C@H](CO)Nc1nc(SCc2ccccc2F)nc2[nH]c(=O)cnc12 [Example 25, 2-[[(2-Fluorophenyl)methyl]thio]-4-[[(1R)-2-hydroxy-1-methylethyl]amino]-7(8H)-pteridinone]
244 to 245 | O=c1cnc2c(NC(CO)CO)nc(SCc3cccc(C(F)(F)F)c3F)nc2[nH]1 [Example 31, 2-[[(2-Fluoro-3-(trifluoromethyl)phenyl)methyl]thio]-4-[[2-hydroxy-1-(hydroxymethyl)ethyl]amino]-7(8H)-pteridinone]
220 to 223 | O=c1cnc2c(NC(CO)CO)nc(SCc3cccs3)nc2[nH]1 [Example 28, 4-[[-2-Hydroxy-1-(hydroxymethyl)ethyl]amino]-2-[(2-thienylmethyl)thio]-7(8H)-pteridinone]
217 to 219 | C[C@H](CO)Nc1nc(SCc2cccc(C(F)(F)F)c2F)nc2[nH]c(=O)cnc12 [Example 30, 2-[[(2-Fluoro-3-(trifluoromethyl)phenyl)methyl]thio]-4-[[(1R)-2-hydroxy-1-methylethyl]amino]-7(8H)-pteridinone]
218.5 to 220.5 | O=c1cnc2c(NC(CO)CO)nc(SCc3cccc(Cl)c3F)nc2[nH]1 [Example 8, 2-[[(3-Chloro-2-fluorophenyl)methyl]thio]-4-[[2-hydroxy-1-(hydroxymethyl)ethyl]amino]-7(8H)-pteridinone]
191 to 194 | C[C@H](CO)Nc1nc(SCc2ccno2)nc2[nH]c(=O)cnc12 [Example 22, 4-[[(1R)-2-Hydroxy-1-methylethyl]amino]-2-[(5-isoxazolylmethyl)thio]-7(8H)-pteridinone]
209 to 211 | COc1ccc(CSc2nc(NC(CO)CO)c3ncc(=O)[nH]c3n2)cc1Cl [Example 11, 2-[[(3-Chloro-4-methoxyphenyl)methyl]thio]-4-[[2-hydroxy-1-(hydroxymethyl)ethyl]amino]-7(8H)-pteridinone]
195 to 196.5 | O=c1cnc2c(NCCO)nc(SCc3cccc(Cl)c3F)nc2[nH]1 [Example 7, 2-[[(3-Chloro-2-fluorophenyl)methyl]thio]-4-[(2-hydroxyethyl)amino]-7(8H)-pteridinone]
197 to 199 | Cc1ccc(CSc2nc(N[C@H](C)CO)c3ncc(=O)[nH]c3n2)o1 [Example 24, 4-[[(1R)-2-Hydroxy-1-methylethyl]amino]-2-[[(5-methyl-2-furanyl)methyl]thio]-7(8H)-pteridinone]
221 to 222 | O=c1cnc2c(NCCO)nc(SCc3cccc(C(F)(F)F)c3F)nc2[nH]1 [Example 32, 2-[[(2-Fluoro-3-(trifluoromethyl)phenyl)methyl]thio]-4-[(2-hydroxyethyl)amino]-7(8H)-pteridinone]
209 to 212 | C[C@H](CO)Nc1nc(SCc2cccs2)nc2[nH]c(=O)cnc12 [Example 26, 4-[[(1R)-2-Hydroxy-1-methylethyl]amino]-2-[[(2-thienyl)methyl)thio]-7(8H)-pteridinone]
